Reference: patent publication US20200131123A1, “INDOLE-FORMAMIDE DERIVATIVE, PREPARATION METHOD THEREFOR AND USE THEREOF IN MEDICINE” (Jiangsu Hengrui Medicine Co., Ltd., priority 2017, published 2020)

Legend:
[1] = test system: MC38 colorectal tumor; test: Efficacy in isotype MC38 colorectal tumor mice model; assay type: in vivo, C57BL/6 mice
Description: The inhibition effect of the compound of Example 4 on MC38 tumor growth was evaluated in MC38 mice model.
Experimental female C57BL/6 mice were purchased from Charles River Lab (U.S.A.). The mice weighed 20-25 gram, and were 7-9 weeks old when purchased. The mice (10 mice per cage) were maintained in a constant temperature of 23+1° C., and a humidity of 50-60%, and free access to food and water. The mice were treated and used in accordance with the Institutional Animal Care and Use Committee (IACUC approved guidelines). After the animals were purchased, the test was started after 7 days of adaptive feeding.
Female C57BL/6 mice (20-25 gram, 7-9 weeks old) were used in the experiment. In vivo antitumor activity of the compound of Example 4 administered alone or the compound of Example 4 administered in combination with anti-mouse PD-1 antibody was evaluated by detecting the growth of isotype MC38 colorectal tumor (Synta Pharmaceuticals) in inbred C57BL/6 mice. 500,000 (5×10^5) MC38 cells were implanted subcutaneously in the right abdomen of each mouse. After 5 days, when the tumor grew to 40-80 mm^3, the mice were grouped randomly. The compound of Example 4 (30 mg/kg) was administered twice a day for 21 consecutive days. During the treatment experiment in which the antibody was administered alone or in combination with the compound of Example 4, anti-mouse PD-1 (CD279) antibody (BioXcell) (5 mg/kg) was intraperitoneally injected (i.p.) to the mice bearing MC38 tumor fixedly on Day 5, 8, 11 and 14. The control group was administered with the vehicle CMC-Na drug formulation and the IgG2a isotype control antibody.
The tumor volume was measured with a caliper in three dimensions, and then calculated according to the following formula: tumor volume (mm^3)=l×w×h×0.5236, wherein 1 represents the length of the tumor, w represents the width of the tumor, and h represents the height of the tumor, in millimeters. Tumor growth inhibition rate TGI %=100×(TVcontrol−TVtumor)/(TVcontrol−TVinitial), wherein TVcontrol=the tumor volume of the control group; TVtumor=the tumor volume of the treatment group; and TVinitial=the initial tumor volume on Day 5.

[2] = Pharmacokinetics assay in mice after intragastrical administration; assay type: in vivo; settings: female, C57, mouse, plasma, po, 2 mg/kg
Description: Mice were used as test animals. The drug concentration in plasma at different time points was determined by LC/MS/MS method after intragastrical administration of the compound of Example 4 to mice. The pharmacokinetic behavior of the compound of the present invention was studied and evaluated in mice. A group of nine C57 mice (female) were purchased from Shanghai Jiesijie Laboratory Animal Co., LTD, with Certificate No.: SCXK (Shanghai) 2013-0006. A certain amount of the test compound was weighed, and added with 5% by volume of DMSO, 5% by volume of tween 80 and 90% by volume of normal saline to prepare a 0.1 mg/mL colorless, clear and transparent solution. […] The samples were stored in heparinized tubes, and centrifuged for 10 minutes at 3500 rpm to separate the blood plasma. The plasma samples were stored at −20° C. The content of the test compound in the plasma of mice after intragastrical administration of the test compound at different concentrations was determined: 25 μL of mouse plasma at each time after administration was taken, added with 80 μL of the internal standard solution of camptothecin (100 ng/mL) and 200 μL of acetonitrile, vortex-mixed for 5 minutes, and centrifuged for 10 minutes (3600 rpm). 1 μL of the supernatant was taken from the plasma samples for LC/MS/MS analysis.

[3] = test system: IL-17A; test: IL-17A enzyme-linked immune quantitative assay in cytostim-activated human PBMC; assay type: cell-based; settings: 72 h; IL-17A in supernatant of human PBMC, 3 days after drug treatment
Description: 1. Human peripheral blood mononuclear cells (PBMC) (Zenbio)
5. Human IL-17 enzyme-linked immunosorbent kit (R&D System)
Frozen human peripheral blood mononuclear cells (PBMC) were rapidly resuscitated in pre-warmed lymphocyte culture medium, and centrifuged at 1000 rpm for 10 min. The cell culture supernatant was removed. The cells were gently suspended in TexMACS medium and counted. The T cell activation reagent cytostim (10 μl/ml) was added in proportion to the cell suspension. Then, the cells were seeded in a 96-well cell culture plate at a density of 1×10^5 peripheral blood mononuclear cells/well. The test compounds were diluted in gradient with TexMACS medium, and added respectively to the test wells, with 2-3 parallel wells per group. A negative control well containing only cells without cytostim was provided to obtain the background reading. The cell culture plate was placed in a incubator at 5% carbon dioxide, 37° C. to incubate for 3 days. The cell culture supernatant was collected 3 days after drug treatment, and centrifuged to remove the suspension. Then, IL-17A in the supernatant was quantified with IL-17A enzyme-linked immunosorbent kit. EC50 values of the test compounds were calculated with GraphPad Prism 6.0.

[4] = 30 mg/kg in combination with anti-mouse PD-1 monoclonal antibody (5 mg/kg)

CCS(=O)(=O)c1ccc([C@H](CO)NC(=O)c2ccc3c(c2)cc(Cc2ccc(Cl)cc2C(F)(F)F)n3CCF)cc1 [Example 4, (R)-2-(4-Chloro-2-(trifluoromethyl)benzyl)-N-(1-(4-(ethylsulfonyl)phenyl)-2-hydroxyethyl)-1-(2-fluoroethyl)-1H-indole-5-carboxamide]
TGI (tumor growth inhibition rate) ([1]; 30 mg/kg administered alone, oral, twice a day for 21 days): 40%
Effect of combined administration with PD-1 antibody [1, 4]: synergistic effect
TGI (tumor growth inhibition rate) [1, 4]: 63%
Antitumor activity ([1]; administered alone): exhibits an antitumor activity
Vd/F ([2]; read-out: Apparent distribution volume Vz/F): 0.637 L/kg
AUC ([2]; read-out: Area under curve AUC): 50600 ng·h/mL
CL/F ([2]; read-out: Clearance CLz/F): 0.66 mL/min/kg
half-life ([2]; read-out: Half-life T1/2 (converted)): 11.2 h
Cmax ([2]; read-out: Plasma concentration Cmax): 3660 ng/mL
MRT ([2]; read-out: Residence time MRT): 15.5 h
EC50 [3]: 85 nM
Emax [3]: 93%
